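Interpolation was linear, between the two tested concentrations surrounding the appropriate level; five concentrations were tested over 48 hours in 96-well plates. The concentration for 50% growth inhibition is given as GI50.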 Activity calls are given as the source filed them. Cut-off read from the data, not from the text of the source: active = GI50 up to about 1.1 µM and inactive = higher.
What was measured:
Test in all cases: inhibition of tumour cell growth, NCI panel, 48 h
HCC 2998 = test system: HCC 2998
LXFL 529 = test system: LXFL 529
NCI-H226 = test system: NCI-H226
DLD-1 = test system: DLD-1
SN12C = test system: SN12C
NCI-H460 = test system: NCI-H460
DMS-273 = test system: DMS-273
SW-620 = test system: SW-620
SK-MEL-28 = test system: SK-MEL-28
UACC-62 = test system: UACC-62
HCT-15 = test system: HCT-15
SK-OV-3 = test system: SK-OV-3
OVCAR-8 = test system: OVCAR-8
OVCAR-5 = test system: OVCAR-5
HOP-92 = test system: HOP-92
KM-20L2 = test system: KM-20L2
SF-539 = test system: SF-539
NCI-H522 = test system: NCI-H522
A549 = test system: A549
HOP-18 = test system: HOP-18

| Compound | GI50 (HCC 2998) | GI50 (LXFL 529) | GI50 (NCI-H226) | GI50 (DLD-1) | GI50 (SN12C) | GI50 (NCI-H460) | GI50 (DMS-273) | GI50 (SW-620) | GI50 (SK-MEL-28) | GI50 (UACC-62) | GI50 (HCT-15) [µM] | GI50 (SK-OV-3) | GI50 (OVCAR-8) | GI50 (OVCAR-5) | GI50 (HOP-92) | GI50 (KM-20L2) | GI50 (SF-539) | GI50 (NCI-H522) | GI50 (A549) | GI50 (HOP-18) |
| --- | --- | --- | --- | --- | --- | --- | --- | --- | --- | --- | --- | --- | --- | --- | --- | --- | --- | --- | --- | --- |
| CC(C)OP(=O)(OC(C)C)C1=NN(c2ccc([N+](=O)[O-])cc2)C(P(=O)(OC(C)C)OC(C)C)=NN1c1ccc([N+](=O)[O-])cc1 | 47.2 µM (inactive) | 22.9 µM (inactive) | > 100 µM (inactive) | 5.32 µM (inactive) | 44.7 µM (inactive) | 29.2 µM (inactive) | 22.5 µM (inactive) | > 100 µM (inactive) | > 100 µM (inactive) | > 100 µM (inactive) | 9.18 | > 100 µM (inactive) | 38.1 µM (inactive) | > 100 µM (inactive) | 7.62 µM (inactive) | > 100 µM (inactive) | 31 µM (inactive) | 46 µM (inactive) | 7.94 µM (inactive) | > 100 µM (inactive) |
| Cc1cn([C@@H]2C[C@H](CO)[C@@H](O)C2)c(=O)[nH]c1=O | > 100 µM (inactive) | > 100 µM (inactive) | > 100 µM (inactive) | > 100 µM (inactive) | > 100 µM (inactive) | > 100 µM (inactive) | > 100 µM (inactive) | > 100 µM (inactive) | > 100 µM (inactive) | > 100 µM (inactive) | > 100 | > 100 µM (inactive) | > 100 µM (inactive) | > 100 µM (inactive) | > 100 µM (inactive) | > 100 µM (inactive) | > 100 µM (inactive) | > 100 µM (inactive) | > 100 µM (inactive) | > 100 µM (inactive) |

From ChEMBL document CHEMBL1201862, “PubChem BioAssay data set” (2004)
